Laboratory results published in patent US8592435B2, “Nitrogen-containing six-membered aromatic ring derivatives and pharmaceutical products containing the same” (Daiichi Sankyo Company, Limited, priority 2007, dated 2013).
Where a name gives a salt, the structure may show the parent alone.

How the values were obtained:
hippocampal neurons = experiment: Test Example 1: ability to promote axonal outgrowth; format: cell-based, Wistar rats; settings: Hippocampal neuron, 216 h, % of control, rat hippocampal neurons, day 9, read-out: Promotion of axonal outgrowth (%); for activity at 3 µM: Compound Conc. = 3 μM; for activity at 0.3 µM: Compound Conc. = 0.3 μM
Experimental: According to the method of M. P. Mattson [M. P. Mattson, Brain Res. Rev., 13, 179, (1988)], the hippocampal region was isolated from 18-day embryos of female Wistar rats and the neurons were dispersed using the papain dissociation system. Hippocampal neuron were suspended in 5% Nu-serum+B27 supplement+Neurobasal medium at 5×10^4 cells/well/2 mL. 2 mL of the cell suspension were inoculated on a poly-D-lysine-coated 36φ dish and the neuron were incubated at 37° C. in a 5% CO2 incubator.
On day 3 of the incubation period, 1 mL of the culture medium was replaced with 1 mL of 5% Nu-serum+B27 supplement+Neurobasal medium containing 2 mM AraC. Each test compound was added to the culture on day 3 and day 7 of the incubation period. On day 9, cells were fixed in a 4% paraformaldehyde solution. The nerve axons of the fixed cells were stained with the Rabbit anti-growth-associated protein-43 polyclonal antibody and the stained cells were quantified using Kurabo neuron outgrowth-quantication software.
The ability (%) of each test compound to promote axonal outgrowth was calculated from the following equation: The ability to promote axonal outgrowth (%)=[(measurement with a compound of interest)/(measurement of control)]×100
Example Compounds shown in Table 25 were used as test compounds and were each added at concentrations of 3 μM and 0.3 μM.
Since bFGF gives a measurement of about 120 in this test, 120 is used as the threshold to determine whether a given compound has the ability to promote axonal outgrowth

[1] = system: mixture of human vascular endothelial cells and fibroblasts; experiment: Test Example 2: ability to promote angiogenesis (angiogenesis test kit KZ-1000); format: cell-based; settings: Homo sapiens, 216 h, lumen length, % of control, day 9, read-out: Promotion of angiogenesis (%); for activity at 3 µM: Compound Conc. = 3 μM; for activity at 0.3 µM: Compound Conc. = 0.3 μM
Experimental: Using an angiogenesis test kit containing a mixture of human vascular endothelial cells and fibroblasts [KZ-1000; Kurabo], the ability of test compounds to promote angiogenesis was evaluated. Each test compound was added on days 1, 4, and 7 of the incubation period. On day 9, cells were immunostained with CD31 and photographed. Control cells were cultured under the same conditions, only without the addition of a test compound, and photographed.
The lumen length of the blood vessel was quantified from the obtained images using an angiogenesis-quantification software. The ability (%) of each test compound to promote angiogenesis was calculated from the following equation: The ability to promote angiogenesis (%)=[(measurement with a compound of interest)/(measurement of control)]×100
Example Compounds shown in Table 26 were used as test compounds.
Since bFGF gives a measurement of about 120 in this test, 120 is used as the threshold to determine whether a given compound has the ability to promote angiogenesis.

Cc1nc(NCC(=O)N(C)C2CCN(Cc3ccccc3)CC2)nc(C)c1N [Compound 63, 2-(5-amino-4,6-dimethylpyrimidine-2-ylamino)-N-(1-benzylpiperidine-4-yl)-N-methylacetamide]
activity at 3 µM (hippocampal neurons): 186%

Cc1nc(OCC(=O)N(C)C2CCN(Cc3ccc(C(N)=O)cc3)CC2)nc(C)c1N [Compound 64, 4-((4-(2-(5-amino-4,6-dimethylpyrimidine-2-yloxy)-N-methylacetamide)piperidine-1-yl)methyl)benzamide]
activity at 0.3 µM (hippocampal neurons): 120%
activity at 3 µM [1]: 177%

Cc1nc(OCC(=O)N(C)C2CCN(Cc3ccc(C(F)(F)F)cc3)CC2)nc(C)c1N [Compound 69, 2-(5-amino-4,6-dimethylpyrimidine-2-yloxy)-N-methyl-N-(1-(4-(trifluoromethyl)benzyl)piperidine-4-yl)acetamide]
activity at 0.3 µM (hippocampal neurons): 172%
activity at 0.3 µM [1]: 161%

Cc1nc(OCC(=O)N(C)C2CCN(Cc3ccc(Cl)cc3)CC2)nc(C)c1N [Compound 72, 2-(5-amino-4,6-dimethylpyrimidine-2-yloxy)-N-(1-(4-chlorobenzyl)piperidine-4-yl)-N-methylacetamide]
activity at 3 µM (hippocampal neurons): 141%
activity at 3 µM [1]: 142%

Cc1nc(OCC(=O)N(C)C2CCN(CC(C)C)CC2)nc(C)c1N [Compound 73, 2-(5-amino-4,6-dimethylpyrimidine-2-yloxy)-N-(1-isobutylpiperidine-4-yl)-N-methylacetamide]
activity at 3 µM (hippocampal neurons): 131%
activity at 3 µM [1]: 139%

Cc1nc(OCC(=O)N(C)C2CCN(CCc3ccccc3)CC2)nc(C)c1N [Compound 75, 2-(5-amino-4,6-dimethylpyrimidine-2-yloxy)-N-methyl-N-(1-phenetylpiperidine-4-yl)acetamide]
activity at 3 µM (hippocampal neurons): 125%
activity at 3 µM [1]: 150%

Cc1nc(OCC(=O)N(C)C2CCN(C(=O)C3CCCCC3)CC2)nc(C)c1N [Compound 76, 2-(5-amino-4,6-dimethylpyrimidine-2-yloxy)-N-(1-(cyclohexanecarbonyl)piperidine-4-yl)-N-methylacetamide hydrochloride]
activity at 3 µM (hippocampal neurons): 123%
activity at 3 µM [1]: 149%

CC(=O)N1CCC(N(C)C(=O)COc2nc(C)c(N)c(C)n2)CC1 [Compound 77, N-(1-acetylpiperidine-4-yl)-2-(5-amino-4,6-dimethylpyrimidine-2-yloxy)-N-methylacetamide hydrochloride]
activity at 3 µM (hippocampal neurons): 135%
activity at 3 µM [1]: 149%

Cc1nc(OCC(=O)N(C)C2CCN(S(=O)(=O)c3ccccc3)CC2)nc(C)c1N [Compound 78, 2-(5-amino-4,6-dimethylpyrimidine-2-yloxy)-N-methyl-N-(1-(phenylsulfonyl)piperidine-4-yl)acetamide]
activity at 3 µM (hippocampal neurons): 130%
activity at 3 µM [1]: 144%

Cc1nc(OCC(=O)N(C)C2CCN(C3CCCCC3)CC2)nc(C)c1N [Compound 79, 2-(5-amino-4,6-dimethylpyrimidine-2-yloxy)-N-(1-cyclohexylpiperidine-4-yl)-N-methylacetamide]
activity at 3 µM (hippocampal neurons): 123%
activity at 3 µM [1]: 133%

Cc1nc(OCC(=O)N(C)C2CCN(C(=O)N3CCCCC3)CC2)nc(C)c1N [Compound 80, 2-(5-amino-4,6-dimethylpyrimidine-2-yloxy)-N-methyl-N-(1-(piperidine-1-carbonyl)piperidine-4-yl)acetamide]
activity at 3 µM (hippocampal neurons): 129%
activity at 0.3 µM [1]: 116%

Cc1ccccc1CN1CCC(N(C)C(=O)COc2nc(C)c(N)c(C)n2)CC1 [Compound 81, 2-(5-amino-4,6-dimethylpyrimidine-2-yloxy)-N-methyl-N-(1-(2-methylbenzyl)piperidine-4-yl)acetamide]
activity at 3 µM (hippocampal neurons): 115%
activity at 3 µM [1]: 126%

Cc1nc(OCC(=O)N(C)C2CCN(c3ccccc3)CC2)nc(C)c1N [Compound 82, 2-(5-amino-4,6-dimethylpyrimidine-2-yloxy)-N-methyl-N-(1-phenylpiperidine-4-yl)acetamide]
activity at 3 µM (hippocampal neurons): 154%
activity at 3 µM [1]: 130%

COc1cccc(CN2CCC(N(C)C(=O)COc3nc(C)c(N)c(C)n3)CC2)c1 [Compound 88, 2-(5-amino-4,6-dimethylpyrimidine-2-yloxy)-N-(1-(3-methoxybenzyl)piperidine-4-yl)-N-methylacetamide hydrochloride]
activity at 0.3 µM (hippocampal neurons): 142%
activity at 3 µM [1]: 122%

Cc1nc(OCC(=O)N(C)C2CCN(Cc3ccc(-c4ccccc4)cc3)CC2)nc(C)c1N [Compound 93, 2-(5-amino-4,6-dimethylpyrimidine-2-yloxy)-N-(1-(biphenyl-4-ylmethyl)piperidine-4-yl)-N-methylacetamide hydrochloride]
activity at 3 µM (hippocampal neurons): 143%
activity at 3 µM [1]: 138%

Cc1nc(OCC(=O)N(C)C2CCNCC2)nc(C)c1N [Compound 94, 2-(5-amino-4,6-dimethylpyrimidine-2-yloxy)-N-methyl-N-(piperidine-4-yl)acetamide]
activity at 3 µM (hippocampal neurons): 122%

Cc1cc(C)nc(OCC(=O)N(C)C2CCN(Cc3ccccc3)CC2)n1 [Compound 95, N-(1-benzylpiperidine-4-yl)-2-(4,6-dimethylpyrimidine-2-yloxy)-N-methylacetamide hydrochloride]
activity at 3 µM (hippocampal neurons): 201%
activity at 3 µM [1]: 133%

Cc1nc(=O)n(CC(=O)N(C)C2CCN(Cc3ccccc3)CC2)c(C)c1N [Compound 97, 2-(5-amino-4,6-dimethyl-2-oxopyrimidine-1(2H)-yl)-N-(1-benzylpiperidine-4-yl)-N-methylacetamide]
activity at 3 µM (hippocampal neurons): 127%
activity at 3 µM [1]: 134%

Cc1nc(OC(C)C(=O)N(C)C2CCN(CC3CC3)CC2)nc(C)c1N (stereo not shown) [Compound 98, 2-(5-amino-4,6-dimethylpyrimidine-2-yloxy)-N-(1-(cyclopropylmethyl)piperidine-4-yl)-N-methylpropanamide]
activity at 3 µM (hippocampal neurons): 130%
activity at 0.3 µM [1]: 129%

Cc1nc(OCC(=O)NC2CCN(CC3CC3)CC2)nc(C)c1N [Compound 101, 2-(5-amino-4,6-dimethylpyrimidine-2-yloxy)-N-(1-(cyclopropylmethyl)piperidine-4-yl)acetamide]
activity at 3 µM (hippocampal neurons): 193%

CC(C)c1nc(OCC(=O)N(C)C2CCN(Cc3ccccc3)CC2)nc(C(C)C)c1N [Compound 104, 2-(5-amino-4,6-diisopropylpyrimidine-2-yloxy)-N-(1-benzylpiperidine-4-yl)-N-methylacetamide]
activity at 0.3 µM (hippocampal neurons): 134%

Cc1cnc(Cl)nc1OC(C)(C)C(=O)N(C)C1CCN(Cc2ccccc2)CC1 [Compound 112, N-(1-benzylpiperidine-4-yl)-2-(2-chloro-5-methylpyrimidine-4-yloxy)-N,2-dimethylpropanamide maleate]
activity at 3 µM (hippocampal neurons): 126%

Cc1nc(N)nc(C)c1OCC(=O)N(C)C1CCN(Cc2ccccc2)CC1 [Compound 113, 2-(2-amino-4,6-dimethylpyrimidine-5-yloxy)-N-(1-benzylpiperidine-4-yl)-N-methylacetamide]
activity at 3 µM (hippocampal neurons): 144%

CN(C(=O)COc1cncc(Cl)c1)C1CCN(Cc2ccccc2)CC1 [Compound 125, N-(1-benzylpiperidine-4-yl)-2-(5-chloropyridine-3-yloxy)-N-methylacetamide hydrochloride]
activity at 0.3 µM (hippocampal neurons): 173%

CN(C(=O)COc1cncc(Cl)c1)C1CCN(CC2CC2)CC1 [Compound 126, 2-(5-chloropyridine-3-yloxy)-N-(1-(cyclopropylmethyl)piperidine-4-yl)-N-methylacetamide hydrochloride]
activity at 3 µM (hippocampal neurons): 167%

CN(C(=O)COc1cncc(Cl)n1)C1CCN(Cc2ccccc2)CC1 [Compound 129, N-(1-benzylpiperidine-4-yl)-2-(6-chloropyrazine-2-yloxy)-N-methylacetamide hydrochloride]
activity at 3 µM (hippocampal neurons): 147%

O=C(COc1ccc(Cl)nn1)N(C1CC1)C1CCN(Cc2ccccc2)CC1 [Compound 138, N-(1-benzylpiperidine-4-yl)-2-(6-chloropyridazine-3-yloxy)-N-cyclopropylacetamide]
activity at 3 µM (hippocampal neurons): 151%

CN(C(=O)CNc1c(Cl)cnnc1Cl)C1CCN(Cc2ccccc2)CC1 [Compound 139, N-(1-benzylpiperidine-4-yl)-2-(3,5-dichloropyridazine-4-ylamino)-N-methylacetamide]
activity at 3 µM (hippocampal neurons): 143%

COc1cnnc(Cl)c1NCC(=O)N(C)C1CCN(Cc2ccccc2)CC1 [Compound 140, N-(1-benzylpiperidine-4-yl)-2-(3-chloro-5-methoxypyridazine-4-ylamino)-N-methylacetamide]
activity at 0.3 µM (hippocampal neurons): 128%
